Test results taken from US20120022048A1, “Anti-proliferative substituted pyrazolo[3,4-d]pyrimidines derivatives (SPP) to inhibit immune activation, virus replication and tumor growth” (priority 2010, published 2012).
“Also recorded” adds a separate entry of the source. Where two headings read alike, the source gives them in different places.

What was measured:
HIV-1 NL 4.3 [1] = assay: HIV-1 replication in quiescent CD4 T cells (p24 Ag ELISA); type: cell-based; conditions: for anti-HIV activity in quiescent cells (in words) / HIV quiescent cells (percentage p24 compared to the untreated control): SPPs 10 μM; for anti-HIV activity in quiescent cells (in words): compared with HU 100 μM, HU+ddI or untreated control; for inhibition at 10 µM: Human immunodeficiency virus 1, CD4+ T, read-out: reduction of HIV-1 p24 production / inhibition of HIV replication compared to untreated control; for Antiviral activity in quiescent cells: class symbol, Table 6; for HIV quiescent cells (percentage p24 compared to the untreated control): quiescent CD4 T cells, day 10, HU 100 μM, HU 100 μM+ddI 2 μM
Protocol: Unstimulated (quiescent/resting, day 0 to 5) human CD4 T-lymphocytes, obtained by magnetic bead separation from healthy, normal donors, were infected with HIV-1 NL 4.3. After five days in culture, cells were stimulated with PHA (5 μg/ml) to induce proliferation, and then, at day 7, IL-2 (20 U/ml) was added (stimulated, day 6 to 10). All available compounds were tested at a concentration of 10 μM. HU 100 μM and HU 100 μM+ddI 2 μM were also employed as comparators and the negative control was left untreated. At day 10, cells and supernatants were harvested and HIV-1 p24 Ag was measured by ELISA. HIV replication was expressed as percentage p24 compared to the untreated control.

[2] = tested on: primary human CD4 T-lymphocytes; assay: Apoptosis in primary CD4 T cells (Annexin V and 7-AAD staining); type: cell-based; conditions: for apoptotic effect (in words) / apoptosis %: SPPs 10 μM; for apoptotic effect (in words): compared with HU 100 μM, HU+ddI or untreated control; for apoptosis %: total apoptotic events compared to untreated control, day 10, Imatinib 10 μM, HU 100 μM, ddI 2 μM
Protocol: (§1) Unstimulated (quiescent/resting, day 0 to 5) primary human CD4 T-lymphocytes were obtained by magnetic bead separation from healthy, normal donors. After five days in culture, cells were activated with PHA (5 μg/ml) to induce hyperproliferation then, at day 7, IL-2 (20 U/ml) was added (stimulated, day 6 to 10). All available compounds were tested at a concentration of 10 μM. […] At day 10, cells were harvested. Proliferation of T cells, cultured as described above, was studied by staining the cells with carboxyfluorescein diacetate-succinimidyl ester (CFSE) at day 0 (immediately after infection). For data analysis, the mitotic index (M) was used, calculating the sum of mitotic events at each proliferation cycle. To extract a relative number, M was normalized to the total number of cells acquired using the equation M=Σ[(Xn(T)−Xn(T)/2^n)], that gives the number of mitotic events from the experimentally obtained values of the proportion of T cells under each division peak n (Xn) and the total T cells (T). To study the effect of the compounds on apoptosis T cells were cultured as described above and at day 10 cells were stained with Annexin V and 7-AAD, in order to determine the percentage of total apoptotic events.
We determined the capacity of the compounds to affect the percentages of apoptotic events after 10 days of treatment in primary CD4 T cells.

[3] = tested on: primary human CD4 T-lymphocytes; assay: Cell hyperproliferation in primary T cells (CFSE staining, mitotic index); type: cell-based; conditions: for anti-proliferative activity (in words) / mitotic index %: SPPs 10 μM, Imatinib 10 μM; for anti-proliferative activity (in words): compared with HU 100 μM, HU+ddI or untreated control; for Anti-proliferative capacity: class symbol, Table 6; for decrease/inhibition of cell proliferation compared to not treated control: SPPs and Imatinib 10 μM; for decrease/inhibition of cell proliferation compared to not treated control / mitotic index %: HU 100 μM; for mitotic index %: % of not treated control (100%), day 10
Protocol: We built up an experimental model using primary T cells to study the activity of the compounds on induced hyperproliferation of cells, which is a characteristic of both chronic viral diseases and cancer including HIV and leukemia.
as §1

[4] = tested on: Human peripheral blood mononuclear cells (PBMC); assay: Cell cycle analysis of anti-CD3/anti-CD28 stimulated PBMC (Ki-67 and 7-AAD flow cytometry); type: cell-based; conditions: 24 hours treatment; compared to the not treated control; FIG. 6
Protocol: A 48 well plate was coated with anti-CD3 antibody by dispensing 100 microliter of a 10 μg/ml antibody solution followed by overnight incubation at 4° C. Human peripheral blood mononuclear cells (PBMC), obtained from healthy, normal donors, were then plated (2×10^6 cells per well in 1 ml) in complete culture medium supplemented with anti-CD28 antibody (2 μg/ml). Stimulated cells were cultured for 2 days then treated with HU, CsA, and VS1-002 to induce cell cycle arrest.

HIV-1 NL 4.3 [5] = assay: HIV-1 replication in activated T cells (PBMC, p24 Ag ELISA); type: cell-based; conditions: for anti-HIV activity in activated T cells (in words): SPPs 10 μM, compared with HU 100 μM, HU+ddI or untreated control; for inhibition at 10 µM: Human immunodeficiency virus 1, T-cell, read-out: inhibition of p24 production / HIV replication compared to untreated control; for Antiviral activity in activated cells: class symbol, Table 6; for HIV activated cells (% p24 compared to not treated control): 7 days, SPPs and Imatinib 10 μM, HU 100 μM, ddI 2 μM
Protocol: The experimental setup described below allows us to detect direct antiviral activity of a compound.
Human PBMC, obtained from healthy, normal donors, were stimulated for two days with PHA 5 μg/ml. Then cells were infected with HIV-1 NL 4.3, IL-2 was added (20 U/ml), cells were plated (10^5 cells per well in 200 μl) and drug treatment started. […] The control was left untreated. After 7 days of incubation at 37° C. supernatants were harvested and HIV-1 p24 Ag was measured by ELISA.

[6] = tested on: Human peripheral blood mononuclear cells (PBMC); conditions: 7 days
[7] = % of not treated control (100%), SPPs 10 μM, Imatinib 10 μM, HU 100 μM, HU 100 μM+ddI 2 μM

SMILES	anti-HIV activity in quiescent cells (in words) (HIV-1 NL 4.3 [1])	apoptotic effect (in words) [2]	anti-proliferative activity (in words) [3]	anti-HIV activity in activated T cells (in words) (HIV-1 NL 4.3 [5])	inhibition at 10 µM (HIV-1 NL 4.3 [1]; quiescent cells, 10 μM) [%]	% viability ([6]; human, 10 μM) [%]	inhibition at 10 µM (HIV-1 NL 4.3 [5]; activated T cells, 10 μM) [%]	decrease/inhibition of cell proliferation compared to not treated control [3] [%]	HIV quiescent cells (percentage p24 compared to the untreated control) (HIV-1 NL 4.3 [1]) [%]	% viability [6, 7] [%]	apoptosis % [2] [%]	mitotic index % [3] [%]	HIV activated cells (% p24 compared to not treated control) (HIV-1 NL 4.3 [5]; activated T cells) [%]	further results
NC(=O)NO [HU, hydroxyurea, reference compound]	potent antiviral activity	no significant increases; also recorded: did not substantially affect the percentage of total apoptotic events	did substantially decrease cell proliferation	not effective in inhibiting HIV replication	–	–	–	–	–	–	–	–	–	inhibition at 100 µM ([3]; Homo sapiens, T-lymphocyte, read-out: decrease/inhibition of cell proliferation compared to not treated control): 74%; effect on cell cycle phases (in words) [4]: decreased the percentage of cells in S phase with an increase in the percentage of cells in G1 phase
CCCCNc1nc(SCC)nc2c1cnn2CC(Cl)c1ccccc1 (stereo not drawn) [VS1-002, N-butyl-1-(2-chloro-2-phenylethyl)-6-(ethylthio)-1H-pyrazolo[3,4-d]pyrimidin-4-amine]	antiviral activity in both quiescent and in hyperactivated cells	did not affect the percentage of apoptotic events; also recorded: not proapoptotic	as effective as 100 μM HU; also recorded: comparable to that of 100 μM HU and superior to that of Imatinib	inhibited HIV replication in activated T cells	90	108.9 ± 8.7	86	–	–	–	–	–	–	Antiviral activity in quiescent cells (HIV-1 NL 4.3 [1]): +++ (excellent (+++, greater than 70% activity)); less toxicity than HU 100 μM+ddI 2 μM combination ([6]; human, 10 μM): 20%; less proapoptotic effect than HU 100 μM+ddI 2 μM combination ([2]; 10 μM, spider graph FIG. 3): more than 20%; Anti-proliferative capacity [3]: +++ (excellent (+++, greater than 70% activity)); effect on cell cycle phases (in words) [4]: decreased the percentage of cells in S phase with an increase in the percentage of cells in G1 phase; Antiviral activity in activated cells (HIV-1 NL 4.3 [5]): +++ (excellent (+++, greater than 70% activity))
CSc1nc(NCCc2ccccc2)c2cnn(C=Cc3ccccc3)c2n1 [VS1-005, 1-styryl-6-methylthio-N-(2-phenylethyl)-1H-pyrazolo[3,4-d]pyrimidin-4-amine]	strong anti-HIV activity; also recorded: same antiviral power	did not induce apoptosis; also recorded: no effect on apoptosis; also recorded: did not affect the percentage of apoptotic events	slightly lower compared to HU	active also against HIV in activated T cells; also recorded: same antiviral power; also recorded: same antiviral activity	97	84.3 ± 22.7	–	27	–	–	–	–	–	anti-proliferative capacity less than HU+ddI ([3]; 10 μM, spider graph FIG. 3): 50%
ClC(Cn1ncc2c(NCc3ccccc3)ncnc21)c1ccccc1 (stereo not drawn) [VS1-010, N-benzyl-1-(2-chloro-2-phenylethyl)-1H-pyrazolo[3,4-d]pyrimidin-4-amine]	active as antivirals; also recorded: good activity against HIV	induced apoptosis; also recorded: more proapoptotic; also recorded: slight increase	increased anti-proliferative capacity compared to 100 μM HU	active as antivirals; also recorded: good activity against HIV	89	40.9 ± 35.8	88	99	–	–	–	–	–	more anti-proliferative than HU+ddI ([3]; 10 μM, spider graph FIG. 3): 20%
CSc1nc(Nc2cccc(Cl)c2)c2cnn(CC(Cl)c3ccccc3)c2n1 (stereo not drawn) [VS1-011, N-(3-chlorophenyl)-1-(2-chloro-2-phenylethyl)-6-(methylthio)-1H-pyrazolo[3,4-d]pyrimidin-4-amine]	active as antivirals	induced apoptosis; also recorded: extremely proapoptotic; also recorded: strongly proapoptotic	increased anti-proliferative capacity compared to 100 μM HU	active as antivirals	80	70.4 ± 16.9	85	100	–	–	–	–	–	increase in apoptotic events compared to the control ([2]; 10 μM, 10 days): 182%
OCCNc1nc(NCc2ccccc2)c2cnn(C=Cc3ccccc3)c2n1 [VS1-015]	–	–	–	better anti-HIV activity than HU	–	–	–	–	7.6 ± 2.8	82.0 ± 5.8	63.9 ± 9.2	55.4 ± 6.0	15.3 ± 2.4	–
Fc1ccc(CNc2ncnc3c2cnn3CC(Cl)c2ccc(Cl)cc2)cc1 (stereo not drawn) [VS1-029, 1-[2-chloro-2-(4-chlorophenyl)ethyl]-N-(4-fluorobenzyl)-1H-pyrazolo[3,4-d]pyrimidin-4-amine]	good anti-HIV activity	no more apoptotic than HU; also recorded: slight increase	good anti-proliferative capacity (superior to 100 μM HU)	good anti-HIV activity	–	96.8 ± 4.5	–	95	–	–	–	–	–	inhibition at 10 µM (HIV-1 NL 4.3 [1]): 94%; Antiviral activity in quiescent cells (HIV-1 NL 4.3 [1]): +++ (excellent (+++, greater than 70% activity)); more anti-proliferative than HU+ddI ([3]; 10 μM, spider graph FIG. 3): about 20%; Anti-proliferative capacity [3]: +++ (excellent (+++, greater than 70% activity)); inhibition at 10 µM (HIV-1 NL 4.3 [5]): 88%; Antiviral activity in activated cells (HIV-1 NL 4.3 [5]): +++ (excellent (+++, greater than 70% activity))
CCN(CC)c1nc(SC)nc2c1cnn2CC(Cl)c1ccccc1 (stereo not drawn) [VS1-032]	–	–	comparable or even greater than HU	–	–	–	–	–	19.7 ± 7.2	99.1 ± 3.7	131.8 ± 58.6	22.0 ± 14.5	59.3 ± 8.1	–
CCOCCNc1nc(SC)nc2c1cnn2CC(Cl)c1ccccc1 (stereo not drawn) [VS1-033]	–	–	comparable or even greater than HU	–	–	–	–	–	15.0 ± 3.0	108.1 ± 3.5	138.6 ± 49.7	15.4 ± 6.7	57.1 ± 10.2	–
